According to US20250346582A1, “SPLEEN TYROSINE KINASE INHIBITORS AND METHODS OF USE THEREOF” (THE BOARD OF TRUSTEES OF THE UNIVERSITY OF ILLINOIS, priority 2022, published 2025):

What was measured:
BLNK-SH2 = target: T1, BLNK-SH2 (Homo sapiens, UniProt Q8WV28); assay: Fluorescence quenching vesicle binding assay, BLNK-SH2; settings: Table 4; POPC/POPS/PIP3/dabsyl-PE (67:20:3:10) vesicles (40 μM); read-out: Imax (%)
T1 construct: All SH2 domain constructs were cloned into the pRSET-B vector; polyhistidine (N); made in house; host or cells: Escherichia coli BL21 (DE3) pLysS
T1 sequence (Q8WV28 346-453 limits assumed): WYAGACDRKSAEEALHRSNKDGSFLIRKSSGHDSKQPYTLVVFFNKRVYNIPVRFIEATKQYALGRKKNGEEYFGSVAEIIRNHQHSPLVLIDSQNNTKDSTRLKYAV
Description: (§1) The membrane-binding assay is based on fluorescence quenching of EGFP fused to a SH2 domain by a dark quencher containing lipid, dabsyl-PE, incorporated in lipid vesicles. The plate reader assay was performed using the Synergy™ Neo spectrofluorometer at 25° C. Nontreated black polystyrene 96-well plates (Corning) were used. Protein (10-50 nM) with the increasing concentration of vesicles with a given lipid composition in 20 mM Tris buffer, pH 7.4, containing 0.16 M NaCl was added to each row of wells and the EGFP fluorescence emission at 516 nm was measured with excitation set at 485 nm. Z′ factor for the assay system was determined as described^74. Imax and IC50 values of inhibitors were determined using the equation, I=Imax/(1+IC50/[I]) where I and [I] indicate % inhibition and inhibitor concentration, respectively. The average and standard deviation values were obtained from triplicate determinations.
(§2) We also optimized a recently developed fluorescence quenching-based lipid-binding assay^47 for high-throughput screening of these molecules for their inhibitory activity against the PIP3-SH2 interaction. Specifically, we expressed SH2 domains as EGFP-tagged proteins and directly quantified their membrane binding by monitoring the quenching of EGFP fluorescence emission intensity by a dark quencher-containing lipid, N-dimethylaminoazo-benzenesulfonyl-phosphatidylethanolamine (dabsyl-PE), incorporated in the vesicles. We then screened for compounds that inhibited binding of Syk-cSH2, BLNK-SH2, and PLCγ2-cSH2, respectively, to 1-palmitoyl-2-oleoyl-PC (POPC)/1-palmitoyl-2-oleoyl-PS (POPS)/PIP3/dabsyl-PE (67:20:3:10) vesicles while eliminating those that inhibit their non-specific binding to anionic POPC/POPS/dabsyl-PE (70:20:10) vesicles. The quality of the screening system was evaluated using 1% dimethylsulfoxide (DMSO) and 20 μM D-myo-inositol-1,3,4,5-tetraphosphate (IP4) as negative and positive controls, respectively. The clear separation of positive and negative control data and the average Z′-factor of 0.7 supported the robustness of our system for high-throughput screen of PIP3-SH2 interaction inhibitors.

Syk-cSH2 = target: T2, Syk-cSH2 (Homo sapiens, UniProt P43405); assay: Fluorescence quenching vesicle binding assay, Syk-cSH2; settings: for IC50: read-out: IC50
T2 construct: polyhistidine (N); made in house; host or cells: Escherichia coli BL21 (DE3) pLysS
Description: as §1, §2

ZAP70-cSH2 = target: T3, ZAP70-cSH2 (Homo sapiens, UniProt P43403); assay: Fluorescence quenching vesicle binding assay, ZAP70-cSH2; settings: for Emax: read-out: Imax (%); for inhibition of ZAP-70-cSH2 binding to POPC/POPS/PIP3/dabsyl-PE vesicles: in words
T3 construct: polyhistidine (N); made in house; host or cells: Escherichia coli BL21 (DE3) pLysS
T3 sequence (P43403 163-254 limits assumed): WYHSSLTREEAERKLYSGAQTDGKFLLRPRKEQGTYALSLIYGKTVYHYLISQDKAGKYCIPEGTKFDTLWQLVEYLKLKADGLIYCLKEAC
Description: as §1, §2

pSyk = target: T4, pSyk (Homo sapiens, UniProt P43405); assay: Western blot inhibition of Syk phosphorylation in Raji B cells; type: cell-based; settings: Immunoblotting, Western blot assay in Raji B cells
T4 construct: endogenous in cells; host or cells: Raji B cells, IgM-stimulated
Description: (a) Cellular efficacy of WC35, WC36, and WC38 was determined by dose-dependent inhibition of Syk phosphorylation in Raji B cells. (b) Imax and IC50 values were determined by non-linear least-squares analysis of data using the equation: […] Each data represents average ±s.d. from triplicate measurements. […] Jurkat T cells were stimulated by OKT3. Cells were seeded at a density of 3.0×10^5 cells/well prior to incubation with inhibitors. […] IgG2 for AML cells, IgM for Raji B cells, and OKT3 (Biolegend) for Jurkat cells. […] Samples were analyzed by SDS-PAGE. Proteins were separated and transferred to Immobilon-P polyvinylidene difluoride membrane (Millipore Sigma). […] The chemiluminescence intensity of protein bands in the gel was analyzed and documented by the Azure […] Imaging System.

[1] = test system: BCR signaling axis (Syk-BLNK-PLCγ2); assay: Western blot of BCR signaling axis in Raji B lymphocytes; type: cell-based; settings: Raji B cells
Description: Cells were seeded at a density of 3.0×10^5 cells/well prior to incubation with inhibitors. Cells were incubated with 1-5 μM of Syk inhibitors overnight and stimulated with different antibodies: IgG2 for AML cells, IgM for Raji B cells, and OKT3 (Biolegend) for Jurkat cells. The cells were lysed in NP40 lysis buffer (50 mM Tris, pH 7.5, 150 mM NaCl, 1 mM EDTA, 1% NP40, 10% glycerol, 10 mM NaF, 10 mM Na3VO4, and the protease inhibitor cocktail) at 4° C. and the cell debris was removed by centrifugation. Samples were analyzed by SDS-PAGE. Proteins were separated and transferred to Immobilon-P polyvinylidene difluoride membrane (Millipore Sigma). The membrane was blocked with 5% bovine serum albumin for 1 h and incubated overnight at 4° C. with various antibodies (1:1000 dilution for all antibodies). After the unbound antibodies were removed by washing with 0.1% Tris buffer saline with 0.1% Tween20, the membranes were incubated with the horseradish peroxidase secondary antibody (1:5000 dilution) for 1 h at room temperature. The membranes were washed three more times with 0.1% Tris buffer saline with 0.1% Tween20 to remove the unbound horseradish peroxidase secondary antibody before imaging. The chemiluminescence intensity of protein bands in the gel was analyzed and documented by the Azure 500Q Imaging System.

[2] = Table 3, efficacy determined by the vesicle binding assay
[3] = Table 4, POPC/POPS/PIP3/dabsyl-PE (67:20:3:10) vesicles (40 μM)

| Emax (BLNK-SH2) | Imax (%) (Syk-cSH2; [2]) | IC50 (Syk-cSH2; [2]) | Imax (%) (Syk-cSH2; [3]) | IC50 (ZAP70-cSH2; [3]) | Emax (ZAP70-cSH2; [3]) | inhibition of ZAP-70-cSH2 binding to POPC/POPS/PIP3/dabsyl-PE vesicles (ZAP70-cSH2) | IC50 (pSyk) | Imax (%) (pSyk) | Structure (SMILES) | effect on phosphorylation of BCR signaling proteins (Syk, BLNK, PLCγ2) [1] |
| --- | --- | --- | --- | --- | --- | --- | --- | --- | --- | --- |
| < 10% | Imax (%) = 70 | 120 nM | 70 ± 5% | 340 ± 20 nM | 30 ± 5% | did not inhibit binding | 180 ± 30 nM | 65 ± 3% | [N-]=[N+]=C(C(=O)OC1CCCCC1)C(Nc1ncccn1)c1ccc[nH]1 (racemic) [WC38, Cyclohexyl 2-diazo-3-(pyrimidin-2-ylamino)-3-(1H-pyrrol-2-yl)propanoate] | effectively suppressed phosphorylation of all BCR signaling proteins |
| < 10% | Imax (%) = 50 | 150 nM | 50 ± 5% | – | < 20% | did not inhibit binding | 180 ± 50 nM | 58 ± 5% | [N-]=[N+]=C(C(=O)OC1CCCCC1)C(Nc1ncccn1)c1ccco1 (racemic) [WC35, Cyclohexyl 2-diazo-3-(furan-2-yl)-3-(pyrimidin-2-ylamino)propanoate] | effectively suppressed phosphorylation of all BCR signaling proteins |
| < 10% | Imax (%) = 60 | 40 nM | 60 ± 5% | – | < 10% | did not inhibit binding | 52 ± 10 nM | 67 ± 5% | [N-]=[N+]=C(C(=O)OC1CCCCC1)C(Nc1ncccn1)c1c[nH]c2ccccc12 (racemic) [WC36, Cyclohexyl 2-diazo-3-(1H-indol-3-yl)-3-(pyrimidin-2-ylamino)propanoate] | effectively suppressed phosphorylation of all BCR signaling proteins |
